Source: patent US12186283B2, “Bismuth-thiol compositions and methods of use” (Microbion Corporation, priority 2018, dated 2025)
Values after ≈ are worked out from the molar mass of the structure shown. Where two headings read alike, the source gives them in different places.

What was measured:
[1] = test system: Staphylococcus aureus (MRSA); details: S. aureus MMX 101 (ATCC 29213); cited from earlier work
[2] = test system: S. pneumoniae (pneumococci); details: S. pneumoniae MMX 6837 (ATCC 49619); cited from earlier work
[3] = test system: Enterococcus spp. (E. faecalis, E. faecium); test: Broth microdilution MIC (Example 11); assay type: cell-based; details: VRE, VRE
[4] = test system: beta-hemolytic streptococci (S. pyogenes, S. agalactiae); test: Broth microdilution MIC (Example 11); assay type: cell-based, Streptococcus pyogenes, Streptococcus agalactiae
[5] = test system: Candida krusei; details: C. krusei ATCC 6258, CLSI established QC range, cited from earlier work
[6] = test system: Aspergillus spp.; details: cited from earlier work
[7] = test system: Candida spp.; details: C. parapsilosis ATCC 22019, CLSI established QC range, cited from earlier work
[8] = test system: Candida spp.; test: Broth microdilution MIC, yeast (Example 13), group statement and QC; assay type: cell-based; details: C. parapsilosis ATCC 22019, comparators, single value
[9] = test system: S. aureus ATCC 29213; test: Broth microdilution MIC, QC organism (Example 13, Table 110); assay type: cell-based, Staphylococcus aureus
Source text: (§1) MECs were only reported where observed.

[10] = test system: E. coli ATCC 25922; test: as above; assay type: cell-based, Escherichia coli
Source text: as §1

[11] = test system: Candida krusei; test: Broth microdilution MIC, yeast (Example 13); assay type: cell-based; details: C. krusei ATCC 6258 (QC, Table 110), comparators, single value
[12] = test system: Aspergillus spp.; test: Broth microdilution MIC/MEC, mold (Example 13); assay type: cell-based
[13] = test system: Candida spp. (C. parapsilosis, C. albicans, C. glabrata, C. tropicalis); details: C. parapsilosis MMX 2323 (ATCC 22019), cited from earlier work

In the case of `CC[C@H]1OC(=O)[C@H](C)[C@@H](O[C@H]2C[C@@](C)(OC)[C@@H](O)[C@H](C)O2)[C@H](C)[C@@H](O[C@@H]2O[C@H](C)C[C@H](N(C)C)[C@H]2O)[C@](C)(O)C[C@@H](C)C(=O)[C@H](C)[C@@H](O)[C@]1(C)O` [Erythromycin], the “CLSI QC range (MIC)” value [1] is listed as “(0.25-1) μg/mL”, the “MIC, CLSI QC range” value [2] is listed as “(0.03-0.12) μg/mL” and the MIC ([3]; Enterococcus faecium, E. faecium MMX 485, vanA, LevR, CipR, EryR, read-out: MIC) is listed as over 64 µg/mL. The MIC ([4]; S. agalactiae MMX 3741, ERY^R CC^R, read-out: MIC) was 8 µg/mL (≈ 10.9 µM), the MIC ([4]; S. agalactiae MMX 3743, ERY^R CC^R, read-out: MIC) was over 8 µg/mL and the MIC ([4]; S. agalactiae MMX 4077, ERY^R CC^R, read-out: MIC) was over 8 µg/mL. For the same molecule, the MIC ([4]; S. agalactiae MMX 4079, ERY^R CC^R Pen^R MEM^R, read-out: MIC) was over 8 µg/mL and the MIC ([4]; S. agalactiae MMX 4086, ERY^R CC^R, read-out: MIC) was over 8 µg/mL.
In the case of `C[C@@H](c1ncncc1F)[C@](O)(Cn1cncn1)c1ccc(F)cc1F` [Voriconazole], the “QC Range 24 hr” value [5] is listed as 0.06-0.5, the “QC Range 48 hr” value [5] is listed as 0.12-1 and the “QC Range 48 hr” value ([6]; A. flavus ATCC 204304, CLSI established QC range) is listed as 0.5-4. The “QC Range 48 hr” value ([6]; A. fumigatus ATCC MYA-3626, CLSI established QC range) was 0.25-1, the “QC Range 24 hr” value [7] was 0.015-0.12 and the “QC Range 48 hr” value [7] was 0.03-0.25. The MIC 48 hr ([8]; 48 hr) was 0.12 µg/mL (≈ 0.344 µM), the MIC 24 hr [9] was over 64 µg/mL and the MIC 24 hr [10] was over 64 µg/mL. For the same molecule, the MIC 24 hr [11] was 0.12 µg/mL (≈ 0.344 µM), the MIC 48 hr [11] was 0.5 µg/mL (≈ 1.43 µM) and the MIC 24 hr ([12]; A. flavus ATCC 204304 (QC, Table 110)) was 0.12 µg/mL (≈ 0.344 µM). For the same molecule, the MIC 24 hr ([12]; A. fumigatus ATCC MYA-3626 (QC, Table 110)) was 0.25 µg/mL (≈ 0.716 µM).
For `OC(Cn1cncn1)(Cn1cncn1)c1ccc(F)cc1F` [fluconazole, reference compound], the “QC Range 24 hr” value [5] is listed as 8-64, the “QC Range 48 hr” value [5] is listed as 16-128 and the “MIC, CLSI QC range” value ([13]; 24 hr) is listed as 0.5 to 4 µg/mL. The “MIC, CLSI QC range” value ([13]; 48 hr) was 1 to 4 µg/mL, the “QC Range 24 hr” value [7] was 0.5-4 and the “QC Range 48 hr” value [7] was 1-4. It also gave an MIC 24 hr ([8]; 24 hr) of 1 µg/mL (≈ 3.27 µM), an MIC 24 hr [9] of over 64 µg/mL and an MIC 24 hr [10] of over 64 µg/mL. The MIC 24 hr [11] was 16 µg/mL (≈ 52.2 µM), the MIC 48 hr [11] was 32 µg/mL (≈ 104 µM) and the activity ([12]; Aspergillus spp.) was “inactive”.
In the case of `CN[C@H](CC(C)C)C(=O)N[C@H]1C(=O)N[C@@H](CC(N)=O)C(=O)N[C@H]2C(=O)N[C@H]3C(=O)N[C@H](C(=O)N[C@H](C(=O)O)c4cc(O)cc(O)c4-c4cc3ccc4O)[C@H](O)c3ccc(c(Cl)c3)Oc3cc2cc(c3O[C@@H]2O[C@H](CO)[C@@H](O)[C@H](O)[C@H]2O[C@H]2C[C@](C)(N)[C@H](O)[C@H](C)O2)Oc2ccc(cc2Cl)[C@H]1O` [vancomycin, reference compound], the “CLSI QC range (MIC)” value [1] is listed as “(0.5-2) μg/mL”, the “MIC, CLSI QC range” value [2] is listed as “(0.12-0.5) μg/mL” and the MIC ([3]; E. faecalis MMX 8961, LevR, CipR, EryR) is listed as over 64 µg/mL. For the same molecule, the MIC ([3]; E. faecalis MMX 8962, LevR, CipR, EryR) was over 64 µg/mL, the MIC ([3]; E. faecium MMX 485, vanA, LevR, CipR, EryR) was over 64 µg/mL and the MIC ([3]; Enterococcus faecalis) was over 64 µg/mL. For the same molecule, the MIC ([3]; Enterococcus faecium) was over 64 µg/mL, the MIC ([4]; S. agalactiae MMX 3741, ERY^R CC^R) was 0.5 µg/mL (≈ 0.345 µM) and the MIC ([4]; S. agalactiae MMX 3743, ERY^R CC^R) was 0.5 µg/mL (≈ 0.345 µM). It also gave an MIC ([4]; S. agalactiae MMX 4077, ERY^R CC^R) of 0.5 µg/mL (≈ 0.345 µM), an MIC ([4]; S. agalactiae MMX 4079, ERY^R CC^R Pen^R MEM^R) of 2 µg/mL (≈ 1.38 µM) and an MIC ([4]; S. agalactiae MMX 4086, ERY^R CC^R) of 1 µg/mL (≈ 0.69 µM).
